From patent US6858591B2, “Antibiotic AA 896 analogs” (Wyeth Holdings Corporation, priority 2001, dated 2005)
Where two headings read alike, the source gives them in different places.

Legend:
Assay in all cases: In vitro MIC, broth dilution
Type in all cases: cell-based
C. albicans GC 3066 = details: Candida albicans, GC3066; C. albicans GC 3066; read-out: MIC
E. coli GC 4559 = details: Escherichia coli, GC4559; E. coli GC 4559; read-out: MIC
E. coli GC 4560 = details: Escherichia coli, GC4560; E. coli GC 4560; read-out: MIC
K. pneumoniae GC 4534 = details: Klebsiella pneumoniae, GC4534; K. pneumoniae GC 4534; read-out: MIC
P. aeruginosa GC 4532 = details: Pseudomonas aeruginosa, GC4532; P. aeruginosa GC 4532; read-out: MIC
E. coli GC 2203 = details: Escherichia coli, GC2203; E. coli GC 2203; read-out: MIC
E. faecalis GC 842 = details: Enterococcus faecalis, GC842; E. faecalis GC 842; read-out: MIC
Outline: (§1)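 MIC read as the lowest antibiotic level preventing growth after 18 hours at 35° C., ambient air. Tested by NCCLS broth dilution in Mueller-Hinton II across 64-0.06 μg/ml with 5×10^5 CFU/ml inoculum.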

E. faecalis GC 4555 = details: Enterococcus faecalis, GC4555; E. faecalis GC 4555; read-out: MIC
Outline: as §1

S. aureus GC 4536 = details: Staphylococcus aureus, GC4536; S. aureus GC 4536; read-out: MIC
Outline: as §1

E. faecalis GC 2242 = details: Enterococcus faecalis, GC2242; E. faecalis GC 2242; read-out: MIC
Outline: as §1

CNS GC 4537 = tested on: CNS GC 4537
Outline: as §1

CNS GC 4547 = tested on: CNS GC 4547
Outline: as §1

S. aureus GC 2216 = details: Staphylococcus aureus, GC2216; S. aureus GC 2216; read-out: MIC
Outline: as §1

CNS GC 4538 = tested on: CNS GC 4538
Outline: as §1

S. aureus GC 1131 = details: Staphylococcus aureus, GC1131; S. aureus GC 1131; read-out: MIC
Outline: as §1

M. morganii GC 4531 = details: Morganella morganii, GC4531; M. morganii GC 4531; read-out: MIC
E. cloacae GC 3783 = details: Enterobacter cloacae, GC3783; E. cloacae GC 3783; read-out: MIC
E. coli GC 3226 = details: Escherichia coli, GC3226; E. coli GC 3226; read-out: MIC
P. aeruginosa GC 2214 = details: Pseudomonas aeruginosa, GC2214; P. aeruginosa GC 2214; read-out: MIC
S. marcescens GC 4077 = details: Serratia marcescens, GC4077; S. marcescens GC 4077; read-out: MIC

Measured: MIC

COc1ccc(Cn2c(=O)ccn([C@@H]3OC(C(O)[C@H](NCCCNC(=O)[C@@H](N)CC(=O)O)C(=O)OC(C)(C)C)[C@@H](O[Si](C)(C)C(C)(C)C)[C@H]3O[Si](C)(C)C(C)(C)C)c2=O)cc1 (stereo in doubt) [Example 17, (3S)-3-Amino-4-[(3-{[(1S,2S)-2-[(3R,4R,5R)-3,4-bis{[tert-butyl(dimethyl)silyl]oxy}-5-(3-(4-methoxybenzyl)-2,4-dioxo-3,4-dihydro-1(2H)-pyrimidinyl)tetrahydro-2-furanyl]-1-(tert-butoxycarbonyl)-2-hydroxyethyl]amino}propyl)amino]-4-oxobutanoic acid]
> 128 mg/L: C. albicans GC 3066 | E. coli GC 4559 | E. coli GC 4560 | K. pneumoniae GC 4534 | P. aeruginosa GC 4532 | E. coli GC 2203 | CNS GC 4537; CNS GC 4537, read-out: MIC | CNS GC 4547; CNS GC 4547, read-out: MIC | M. morganii GC 4531 | E. cloacae GC 3783 | E. coli GC 3226 | P. aeruginosa GC 2214 | S. marcescens GC 4077
128 mg/L: S. aureus GC 4536 | S. aureus GC 1131
16 mg/L: E. faecalis GC 4555
4 mg/L: E. faecalis GC 2242
64 mg/L: CNS GC 4538; CNS GC 4538, read-out: MIC
32 mg/L: E. faecalis GC 842 | S. aureus GC 2216

COc1ccc(Cn2c(=O)ccn([C@@H]3OC([C@H](O)[C@H](NCCCNC(=O)[C@@H](N)[C@@H](O)C(C)C)C(=O)OC(C)(C)C)[C@@H](O[Si](C)(C)C(C)(C)C)[C@H]3O[Si](C)(C)C(C)(C)C)c2=O)cc1 (stereo partly drawn) [Example 2, tert-Butyl (2S,3R)-2-[(3-{[(2S,3S)-2-amino-3-hydroxy-4-methylpentanoyl]amino}propyl)amino]-3-[(3R,4R,5R)-3,4-bis{[tert-butyl(dimethyl)silyl]oxy}-5-(3-(4-methoxybenzyl)-2,4-dioxo-3,4-dihydro-1(2H)-pyrimidinyl)tetrahydro-2-furanyl]-3-hydroxypropanoate]
8 mg/L: E. faecalis GC 842
4 mg/L: E. faecalis GC 4555 | E. faecalis GC 2242 | CNS GC 4537; CNS GC 4537, read-out: MIC | S. aureus GC 2216 | CNS GC 4538; CNS GC 4538, read-out: MIC | S. aureus GC 1131
> 128 mg/L: C. albicans GC 3066 | E. coli GC 4559 | E. coli GC 4560 | K. pneumoniae GC 4534 | P. aeruginosa GC 4532 | E. coli GC 2203 | M. morganii GC 4531 | E. cloacae GC 3783 | E. coli GC 3226 | P. aeruginosa GC 2214 | S. marcescens GC 4077
16 mg/L: S. aureus GC 4536 | CNS GC 4547; CNS GC 4547, read-out: MIC

COc1ccc(Cn2c(=O)ccn([C@@H]3OC([C@H](O)[C@H](NCCCNC(=O)[C@H](C)N)C(=O)OC(C)(C)C)[C@@H](O[Si](C)(C)C(C)(C)C)[C@H]3O[Si](C)(C)C(C)(C)C)c2=O)cc1 (stereo partly drawn) [Example 15, tert-Butyl (2S,3R)-2-[(3-{[(2S)-2-aminopropanoyl]amino}propyl)amino]-3-[(3R,4R,5R)-3,4-bis{[tert-butyl(dimethyl)silyl]oxy}-5-(3-(4-methoxybenzyl)-2,4-dioxo-3,4-dihydro-1(2H)-pyrimidinyl)tetrahydro-2-furanyl]-3-hydroxypropanoate]
8 mg/L: E. coli GC 4560 | CNS GC 4547; CNS GC 4547, read-out: MIC
4 mg/L: E. faecalis GC 842 | E. faecalis GC 4555 | S. aureus GC 4536 | E. faecalis GC 2242 | CNS GC 4537; CNS GC 4537, read-out: MIC | S. aureus GC 2216 | CNS GC 4538; CNS GC 4538, read-out: MIC | S. aureus GC 1131
64 mg/L: C. albicans GC 3066
128 mg/L: M. morganii GC 4531 | P. aeruginosa GC 2214
> 128 mg/L: E. coli GC 4559 | K. pneumoniae GC 4534 | P. aeruginosa GC 4532 | E. coli GC 2203 | E. cloacae GC 3783 | E. coli GC 3226 | S. marcescens GC 4077

COc1ccc(Cn2c(=O)ccn([C@@H]3OC([C@H](O)[C@H](NCCCNC(=O)[C@H](CC(C)C)NC(=O)[C@H](CCCNC(=N)N[N+](=O)[O-])NC(=O)N[C@H](C(=O)OCc4ccccc4)C(C)C)C(=O)O)[C@@H](O)[C@H]3O)c2=O)cc1 (stereo partly drawn) [Example 49, (4S,8S,11S,18S)-18-[(R)-[(3S,4R,5R)-3,4-Dihydroxy-5-(3-(4-methoxybenzyl)-2,4-dioxo-3,4-dihydro-1(2H)-pyrimidinyl)tetrahydro-2-furanyl](hydroxy)methyl]-8-(3-{[(2,2-dioxido-2lambda˜1˜-diazanyl)(imino)methyl]amino}propyl)-11-isobutyl-4-isopropyl-3,6,9,12-tetraoxo-1-phenyl-2-oxa-5,7,10,13,17-pentaazanonadecan-19-oic acid]
> 128 mg/L: E. coli GC 4559 | E. coli GC 4560 | K. pneumoniae GC 4534 | E. coli GC 2203 | E. faecalis GC 4555 | S. aureus GC 4536 | CNS GC 4537 | CNS GC 4547 | S. aureus GC 2216 | CNS GC 4538 | S. aureus GC 1131 | E. cloacae GC 3783 | E. coli GC 3226 | S. marcescens GC 4077
128 mg/L: C. albicans GC 3066 | P. aeruginosa GC 4532 | E. faecalis GC 842 | E. faecalis GC 2242 | M. morganii GC 4531 | P. aeruginosa GC 2214

COc1ccc(Cn2c(=O)ccn([C@@H]3OC([C@H](O)[C@H](NCCCNC(=O)CCCCCCCCCCN)C(=O)OC(C)(C)C)[C@@H](O[Si](C)(C)C(C)(C)C)[C@H]3O[Si](C)(C)C(C)(C)C)c2=O)cc1 (some centres unmarked) [Example 25]
> 128 mg/L: E. coli GC 4559 | K. pneumoniae GC 4534 | E. coli GC 2203 | E. cloacae GC 3783 | E. coli GC 3226
128 mg/L: C. albicans GC 3066 | E. coli GC 4560 | P. aeruginosa GC 4532 | E. faecalis GC 842 | E. faecalis GC 4555 | S. aureus GC 4536 | CNS GC 4547; CNS GC 4547, read-out: MIC | S. aureus GC 2216 | S. aureus GC 1131 | M. morganii GC 4531 | P. aeruginosa GC 2214 | S. marcescens GC 4077
64 mg/L: E. faecalis GC 2242 | CNS GC 4537; CNS GC 4537, read-out: MIC | CNS GC 4538; CNS GC 4538, read-out: MIC

COc1ccc(Cn2c(=O)ccn([C@@H]3OC([C@H](O)[C@H](NCCCNC(=O)[C@H](CC(C)C)NC(=O)OCc4ccccc4)C(=O)O)[C@@H](O)[C@H]3O)c2=O)cc1 (stereo partly drawn) [Example 52, (5S,12S)-12-[(R)-[(3S,4R,5R)-3,4-Dihydroxy-5-(3-(4-methoxybenzyl)-2,4-dioxo-3,4-dihydro-1(2H)-pyrimidinyl)tetrahydro-2-furanyl](hydroxy)methyl]-5-isobutyl-3,6-dioxo-1-phenyl-2-oxa-4,7,11-triazatridecan-13-oic acid]
> 128 mg/L: E. coli GC 4559 | K. pneumoniae GC 4534 | E. coli GC 2203 | S. aureus GC 4536 | CNS GC 4537; CNS GC 4537, read-out: MIC | CNS GC 4547; CNS GC 4547, read-out: MIC | S. aureus GC 2216 | CNS GC 4538; CNS GC 4538, read-out: MIC | S. aureus GC 1131 | E. cloacae GC 3783 | E. coli GC 3226
128 mg/L: C. albicans GC 3066 | E. coli GC 4560 | P. aeruginosa GC 4532 | E. faecalis GC 842 | E. faecalis GC 4555 | E. faecalis GC 2242 | M. morganii GC 4531 | P. aeruginosa GC 2214 | S. marcescens GC 4077

CCOC(=O)C(NCCCNC(=O)[C@@H](N)CC(C)C)[C@@H](OC(C)=O)[C@H]1O[C@@H](n2ccc(=O)[nH]c2=O)[C@H](OC(C)=O)[C@@H]1OC(C)=O (stereo partly drawn) [Example 40, Ethyl (3R)-3-(acetyloxy)-2-[(3-{[(2S)-2-amino-4-methylpentanoyl]amino}propyl)amino]-3-[(2R,3R,4R,5R)-3,4-bis(acetyloxy)-5-(2,4-dioxo-3,4-dihydro-1(2H)-pyrimidinyl)tetrahydro-2-furanyl]propanoate]
> 128 mg/L: C. albicans GC 3066 | E. coli GC 4559 | E. coli GC 4560 | K. pneumoniae GC 4534 | E. coli GC 2203 | E. faecalis GC 842 | E. faecalis GC 4555 | S. aureus GC 4536 | CNS GC 4537; CNS GC 4537, read-out: MIC | CNS GC 4547; CNS GC 4547, read-out: MIC | S. aureus GC 2216 | CNS GC 4538; CNS GC 4538, read-out: MIC | S. aureus GC 1131 | M. morganii GC 4531 | E. cloacae GC 3783 | E. coli GC 3226 | S. marcescens GC 4077
128 mg/L: P. aeruginosa GC 4532 | E. faecalis GC 2242 | P. aeruginosa GC 2214
